We go through 48 compounds from patent US20170280720A1, “ARGININE […] INHIBITORS AND USES THEREOF” (EPIZYME, INC., priority 2014, published 2017).

Experiment [1] has as its target T1, Human CARM1 (PRMT4) (Homo sapiens, UniProt Q86X55).
T1 construct: Flag-CARM1-His; made in house; host or cells: HEK 293F cells (BacMam baculovirus, pFastBacMam)
T1 sequence (Q86X55 2-585 isoform Q86X55-1): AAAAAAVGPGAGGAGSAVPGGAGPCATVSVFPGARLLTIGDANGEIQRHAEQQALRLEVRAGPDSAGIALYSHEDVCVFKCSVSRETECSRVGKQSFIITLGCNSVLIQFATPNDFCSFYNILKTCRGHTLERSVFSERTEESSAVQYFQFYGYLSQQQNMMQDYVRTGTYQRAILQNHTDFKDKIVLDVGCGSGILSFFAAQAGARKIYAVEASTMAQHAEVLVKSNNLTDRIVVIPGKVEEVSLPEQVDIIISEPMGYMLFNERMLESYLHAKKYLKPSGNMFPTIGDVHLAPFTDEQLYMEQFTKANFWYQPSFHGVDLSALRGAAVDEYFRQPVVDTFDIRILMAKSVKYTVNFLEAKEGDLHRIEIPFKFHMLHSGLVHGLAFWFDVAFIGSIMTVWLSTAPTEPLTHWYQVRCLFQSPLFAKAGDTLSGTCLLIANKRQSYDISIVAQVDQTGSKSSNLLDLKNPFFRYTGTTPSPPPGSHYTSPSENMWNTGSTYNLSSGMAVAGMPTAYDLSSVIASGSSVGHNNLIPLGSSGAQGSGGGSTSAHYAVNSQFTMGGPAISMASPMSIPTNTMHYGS
Description: CARM1 biochemical assay (3H-SAM Flashplate, peptide substrate). The note with it: read-out: CARM1_ IC50. A digest of the protocol: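 FLAG/His-tagged human CARM1 (isoform 1, Δ539-561, baculovirus-expressed), 0.25 nM, preincubated 30 min at room temperature with compound (2% DMSO) in 20 mM Bicine pH 7.6, then reacted with 30 nM 3H-SAM and 250 nM biotinylated H3 16-30 peptide (R26 monomethyl). Stopped with 300 uM cold SAM; labelled peptide captured on streptavidin Flashplate; % inhibition versus DMSO and 1 mM SAH controls fitted to a 4- or 3-parameter curve.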

The target of experiment [2] is PRMT5 (Homo sapiens, UniProt O14744). The experiment can be described thus: PRMT5 IC50 (Table 2; no method described). The experiment is classed as biochemical. The note with it: read-out: PRMT5_ IC50.
Experiment [3] has as its system asymmetric di-methyl PABP1 in RKO cells. The experiment can be described thus: In Cell Western (ICW) for asymmetric di-methyl PABP1 and DNA content in RKO cells. The note with it: Homo sapiens, RKO. It is filed as cell-based. A digest of the protocol:
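RKO cells treated with compound for 48 h at 37 °C, then fixed, methanol-permeabilized and stained for asymmetric di-methyl PABP1 (800 nm) with DRAQ5 DNA stain (700 nm). Signal ratio normalized to DMSO and 20 μM reference-compound controls. IC50 from nine 3-fold dilutions in triplicate.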

As usually defined, the IC50 is the midpoint of a concentration-inhibition curve.

Sequence of PRMT5 (O14744 whole entry, species assumed): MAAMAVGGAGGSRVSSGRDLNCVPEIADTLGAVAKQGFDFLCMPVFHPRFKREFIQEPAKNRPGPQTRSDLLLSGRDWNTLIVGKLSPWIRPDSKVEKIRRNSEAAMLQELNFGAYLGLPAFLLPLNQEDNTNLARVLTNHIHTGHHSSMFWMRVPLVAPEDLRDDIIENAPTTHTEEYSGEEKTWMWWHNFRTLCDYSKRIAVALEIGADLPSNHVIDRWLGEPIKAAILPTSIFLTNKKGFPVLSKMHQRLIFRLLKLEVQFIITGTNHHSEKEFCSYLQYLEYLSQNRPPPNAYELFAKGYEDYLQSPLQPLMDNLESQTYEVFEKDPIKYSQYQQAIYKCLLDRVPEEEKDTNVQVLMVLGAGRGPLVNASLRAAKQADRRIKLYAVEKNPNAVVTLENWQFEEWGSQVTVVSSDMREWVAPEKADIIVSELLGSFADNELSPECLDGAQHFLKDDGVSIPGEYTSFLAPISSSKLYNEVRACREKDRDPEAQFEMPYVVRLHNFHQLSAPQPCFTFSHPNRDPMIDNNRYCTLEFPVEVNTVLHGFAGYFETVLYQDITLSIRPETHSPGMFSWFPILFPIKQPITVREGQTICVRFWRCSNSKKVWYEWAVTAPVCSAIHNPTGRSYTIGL
Sequence of PRMT5 (Q9BQA1 whole entry partner, species assumed): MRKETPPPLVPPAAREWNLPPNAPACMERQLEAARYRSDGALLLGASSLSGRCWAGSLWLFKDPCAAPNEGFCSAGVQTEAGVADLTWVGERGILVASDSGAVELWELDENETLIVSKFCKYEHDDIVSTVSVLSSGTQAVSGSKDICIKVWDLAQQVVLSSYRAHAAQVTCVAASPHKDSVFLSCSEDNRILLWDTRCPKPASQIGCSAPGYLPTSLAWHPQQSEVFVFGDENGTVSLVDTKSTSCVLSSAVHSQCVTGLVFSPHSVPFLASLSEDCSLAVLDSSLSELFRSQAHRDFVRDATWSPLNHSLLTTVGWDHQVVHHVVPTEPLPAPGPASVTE

`NCCNCc1ccc(-c2ccc3ncn(Cc4cccc(C(=O)NC5CCCc6ccccc65)c4)c3c2)cc1` (centres unmarked) [Compound 325]: the IC50 turned out to be 1030 nM in experiment [1] and 25.3 nM in experiment [2].
For the compound `CC(=O)N1CCC(Cn2cnc3ccc(-c4ccc(CNCCN)cc4)cc32)CC1` [Compound 352], the IC50 in experiment [2] amounted to 325 nM.
Take `NCCNCc1ccc(-c2ccc3cnn(Cc4cccc(C(=O)N5CCCCC5)c4)c3c2)cc1` [Compound 326]: the IC50 in experiment [1] stood at 1270 nM; in experiment [2], 170 nM.
In the same order, the values of `COc1ccc(Cn2cnc3ccc(-c4cccc(CNCCN)c4)cc32)cc1` [Compound 309] are 272 nM and 1070 nM.
In the same order, the values of `NCCNCc1ccc(-c2ccc3cnn(Cc4cccc(C(=O)N5CCCC5)c4)c3c2)cc1` [Compound 324] are 887 nM and 97.3 nM.
In the same order, the values of `CC(C)n1ncc2c(C(=O)N(C)Cc3cccc(F)c3)cc(-c3cccc(CN(C)CCN)c3)nc21` [Compound 287] are 153 nM and 4170 nM.
As for `NCCNCc1ccc(-c2ccc3ncn(Cc4cccc(C(=O)NCc5ccccc5)c4)c3c2)cc1` [Compound 337], the IC50 in experiment [1] stood at 5350 nM; in experiment [2], 33.3 nM.
In the case of `CN1CCN(C(=O)c2cccc(Cn3ncc4ccc(-c5ccc(CNCCN)cc5)cc43)c2)CC1` [Compound 335], the IC50 turned out to be 3510 nM in experiment [1] and 73.8 nM in experiment [2].
As for `NCCNCc1ccc(-c2ccc3cnn(Cc4ccncc4)c3c2)cc1` [Compound 350], the IC50 in experiment [2] is 172 nM.
In the case of `COc1ccc(Cn2ncc3ccc(-c4ccc(CNCCN)cc4)cc32)cc1` [Compound 339], the IC50 in experiment [1] amounted to 5680 nM; in experiment [2], 135 nM.
In the same order, the values of `NCCNCc1ccc(-c2ccc3cnn(CC4CCNCC4)c3c2)cc1` [Compound 348] are 10000 nM and 435 nM.
For the compound `NCCNCc1ccc(-c2ccc3ncn(Cc4cccc(C(=O)NC5CCCCC5)c4)c3c2)cc1` [Compound 327], the IC50 is 1600 nM in experiment [1] and 72.8 nM in experiment [2].
In the same order, the values of `CNCCN(C)Cc1cccc(-c2cc(C(=O)N(C)Cc3ccc(F)cc3)c3cnn(C(C)C)c3n2)c1` [Compound 278] are 110 nM and 8730 nM.
Turning to `NCCNCc1ccc(-c2ccc3ncn(Cc4cccc(C(=O)N5CCCC5)c4)c3c2)cc1` [Compound 323], the IC50 worked out at 756 nM in experiment [1] and 127 nM in experiment [2].
`CC(=O)N1CCC(Cn2ncc3ccc(-c4ccc(CNCCN)cc4)cc32)CC1` [Compound 353]: the IC50 in experiment [2] worked out at 351 nM.
Same read-out and setting: under `CC(C)(C)C(=O)Cn1cnc2cc(-c3ccc(CNCCN)cc3)ccc21` [Compound 354] stands 452 nM; under `CN(CCc1ccccn1)C(=O)c1cncc(-c2ccc(CNCCN)cc2)c1` [Compound 357], 393 nM.
In the case of `CNCCN(C)Cc1cccc(-c2cc(C(=O)NCc3cn4cccc(C)c4n3)c3cnn(C(C)C)c3n2)c1` [Compound 181], the IC50 worked out at 9.63 nM in experiment [1] and 733 nM in experiment [3] (In Cell Western).
In the same order, the values of `CC(C)n1ncc2c(C(=O)NC3CCOCC3)cc(-c3cccc(CN(C)CCNC4CC4)c3)nc21` [Compound 295] are 181 nM and 12400 nM.
Consider `NCCNCc1ccc(-c2ccc3cnn(C4CCNCC4)c3c2)cc1` [Compound 351], for which, in experiment [2], the IC50 is 235 nM.
As for `CC(C)n1ncc2c(NCC(=O)O)cc(-c3cccc(CN(C)CCN)c3)nc21` [Compound 319], the results for the IC50 in experiment [1] and in experiment [3] (In Cell Western) were 401 nM and 20000 nM, respectively.
In the same order, the values of `CC(C)n1ncc2c(C(=O)NCC3CCOCC3)cc(-c3cccc(CN(C)CCNC4CCC4)c3)nc21` [Compound 273] are 87.7 nM and 14500 nM.
For `CCn1ncc2c(C(=O)NCC3CCOCC3)cc(-c3cccc(CN(C)CCNC)c3)nc21` [Compound 227] the same measures were 39.9 nM and 4740 nM.
For `CN(CCN)Cc1cccc(-c2cc(C(=O)NC3CCOCC3)cc(N(C)CC3CC3)c2)c1` [Compound 217] the same measures were 30 nM and 5690 nM.
Consider `CNCCN(C)Cc1cccc(-c2cc(C(=O)NCC(F)(F)F)c3cnn(C(C)C)c3n2)c1` [Compound 288], for which the IC50 was determined as 159 nM in experiment [1] and 3440 nM in experiment [3] (In Cell Western).
In the same order, the values of `CCNC(=O)c1cc(-c2cccc(CN(C)CCNC)c2)nc2c1cnn2C(C)C` [Compound 255] are 62.3 nM and 3870 nM.
In the same order, the values of `CC(C)n1ncc2c(C(=O)NCc3cccnc3)cc(-c3cccc(CN(C)CCN)c3)nc21` [Compound 195] are 13.9 nM and 1660 nM.
Take `CC(C)n1ncc2c(C(=O)N(C)Cc3ccccn3)cc(-c3cccc(CN(C)CCN)c3)nc21` [Compound 282]: the IC50 in experiment [1] stood at 130 nM; in experiment [3] (In Cell Western) it was 8200 nM.
For `CCN(Cc1cccnc1)C(=O)c1cc(-c2cccc(CN(C)CCNC)c2)nc2c1cnn2C(C)C` [Compound 254] the same measures were 61.8 nM and 5520 nM.
In the same order, the values of `Cc1c(C(=O)NC2CCOCC2)cc(-c2cccc(CN(C)CCN)c2)cc1N(C)CC1CC1` [Compound 243] are 52 nM and 20000 nM.
On to `CCN(c1cc(-c2cccc(CN(C)CCNC)c2)cc(C(=O)NCc2c(C)cc(C)[nH]c2=O)c1C)C1CCOCC1` [Compound 387], for which the IC50 in experiment [1] was determined as 97.2 nM; in experiment [3] (48 h), 10900 nM.
Consider `CC(C)n1ncc2c(C(=O)N3CCC(F)(F)C3)cc(-c3cccc(CN(C)CCN)c3)nc21` [Compound 261], for which the IC50 in experiment [1] was 69.4 nM; in experiment [3] (In Cell Western), 20000 nM.
Turning to `CNCCN(C)Cc1cccc(-c2cc(C(=O)NCC3CCOCC3)c3cnn(C)c3n2)c1` [Compound 289], the IC50 in experiment [1] was determined as 163 nM; in experiment [3] (In Cell Western), 16900 nM.
For `CC(C)n1ncc2c(C(=O)N(C)Cc3cccnc3)cc(-c3cccc(CN(C)CCN)c3)nc21` [Compound 224] the same measures were 37.5 nM and 8470 nM.
In the case of `CCN(C)C(=O)c1cc(-c2cccc(CN(C)CCN)c2)nc2c1cnn2C(C)C` [Compound 230], the results for the IC50 in experiment [1] and in experiment [3] (In Cell Western) were 41.4 nM and 7630 nM, respectively.
In the same order, the values of `CC(C)n1ncc2c(C(=O)N3CCSCC3)cc(-c3cccc(CN(C)CCN)c3)nc21` [Compound 258] are 64.2 nM and 18500 nM.
Take `CNCCN(C)Cc1cccc(-c2cc(C(=O)NC3CCOCC3)c3cnn(CC(F)(F)F)c3n2)c1` [Compound 270]: the IC50 in experiment [1] was 81 nM; in experiment [3] (In Cell Western) it was 5140 nM.
`CNCCN(C)Cc1cccc(-c2cc(-c3ccsc3)c3cnn(C(C)C)c3n2)c1` [Compound 235]: the IC50 worked out at 45.8 nM in experiment [1] and 20000 nM in experiment [3] (In Cell Western).
For `CNCCN(C)Cc1cccc(-c2cc(C(=O)N3Cc4cccnc4C3)c3cnn(C(C)C)c3n2)c1` [Compound 301] the same measures were 209 nM and 15500 nM.
For `CCOC(=O)Nc1cc(-c2cccc(CN(C)CCN)c2)nc2c1cnn2C(C)C` [Compound 173] the same measures were 5.93 nM and 3310 nM.
For `CCNCCN(C)Cc1cccc(-c2cc(C(=O)NCC3CCOCC3)c3cnn(C(C)C)c3n2)c1` [Compound 271] the same measures were 81.4 nM and 20000 nM.
As for `CCOC(=O)Nc1cc(-c2cccc(CN(C)CCNC)c2)nc2c1cnn2C(C)C` [Compound 205], the values for the IC50 in experiment [1] and in experiment [3] (In Cell Western) were 19.6 nM and 5750 nM, respectively.
In the same order, the values of `CNCCN(C)Cc1cccc(-c2cc(NC(=O)OC)c3cnn(C(C)C)c3n2)c1` [Compound 190] are 12.5 nM and 2460 nM.
As for `CC(C)n1ncc2c(C(=O)N3CCC(F)C3)cc(-c3cccc(CN(C)CCN)c3)nc21` (centres unmarked) [Compound 257], the values for the IC50 in experiment [1] and in experiment [3] (In Cell Western) were 63.5 nM and 10300 nM, respectively.
Regarding `CC(C)n1cc2c(C(=O)NCC3CCOCC3)cc(-c3cccc(CN(C)CCN)c3)nc2n1` [Compound 297], the results for the IC50 in experiment [1] and in experiment [3] (In Cell Western) were 189 nM and 20000 nM, respectively.
As to `NCCNCc1ccc(-c2ccc3cnn(Cc4cccc(C(=O)N5CCOCC5)c4)c3c2)cc1` [Compound 349], the IC50 in experiment [2] turned out to be 117 nM.
Turning to `CNCCN(C)Cc1cccc(-c2cc(C(=O)NCc3nccn3C)c3cnn(C(C)C)c3n2)c1` [Compound 212], the results for the IC50 in experiment [1] and in experiment [3] (In Cell Western) were 24.9 nM and 1800 nM, respectively.
In the same order, the values of `CNCCN(C)Cc1cccc(-c2nc(NC3CCOCC3)c3cnn(C4CC4)c3n2)c1` [Compound 179] are 8.88 nM and 4870 nM.
